# Experimental data from patent publication US10695346B2, “4,6-pyrimidinylene derivatives and uses thereof” (Dana-Farber Cancer Institute, Inc., priority 2015, dated 2020).
# pIC50: −log10 of the molar value.
# How the values were obtained:
# [1] = tested on: TP53 wild type MCF7 cells; experiment: Cell proliferation assay (Cell TITER-GLO); conditions: even at 5 μM; FIG. 3D
# Description: To determine cell proliferation, cells were plated at 2×10^3 cells per well of 96-well plate. Cells were incubated and assayed at indicated times using Cell TITER-GLO Luminescent Cell Viability assay (Promega). Cells were allowed to equilibrate to room temperature for 15 minutes, then an equal volume of the Cell TITER-GLO reagent was added to wells and incubated for 15 minutes on an orbital shaker. Luminescence was recorded according to the manufacturer's protocol.
# PIP4K2A = molecular target: T1, PIP4K2A (Homo sapiens, UniProt P48426); experiment: ADP-GLO assay on PIP4K2A; format: biochemical; conditions: 0.01 mM ATP, 0.05 mM diC8 PI(5)P
# T1 sequence (P48426 1-406): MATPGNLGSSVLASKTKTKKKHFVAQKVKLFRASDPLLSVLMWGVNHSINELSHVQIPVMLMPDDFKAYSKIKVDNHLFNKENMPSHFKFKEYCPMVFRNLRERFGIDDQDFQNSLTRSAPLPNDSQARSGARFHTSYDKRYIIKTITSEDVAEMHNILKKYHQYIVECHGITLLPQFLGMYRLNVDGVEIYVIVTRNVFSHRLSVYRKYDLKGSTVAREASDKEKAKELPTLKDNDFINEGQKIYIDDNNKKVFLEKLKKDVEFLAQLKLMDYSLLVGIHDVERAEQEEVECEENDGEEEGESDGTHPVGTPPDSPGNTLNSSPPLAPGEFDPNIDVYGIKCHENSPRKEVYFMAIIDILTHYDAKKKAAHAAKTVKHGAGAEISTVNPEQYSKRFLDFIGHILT
# Description: After a further incubation of 40 minutes, 40 μl of Kinase Detection Buffer was added. After a further incubation of 40 min, the […] was read on […] ENVISION for 1 sec/well.
Structure (SMILES),inhibition of TP53 wild type MCF7 cells [1],pIC50 (PIP4K2A)
"CN(C)C/C=C/C(=O)Nc1ccc(C(=O)Nc2cccc(Nc3cc(-c4cnc5[nH]ccc5c4)ncn3)c2)cc1 [Compound 8, (E)-N-(3-((6-(1H-pyrrolo[2,3-b]pyridin-5-yl)pyrimidin-4-yl)amino)phenyl)-4-(4-(dimethylamino)but-2-enamido)benzamide]",didn't inhibit,–
"CN(C)C/C=C/C(=O)NC1CCCC(C(=O)Nc2cccc(Nc3cc(-c4cnc5[nH]ccc5c4)ncn3)c2)C1 (centres unmarked) [THZ-CE-A-4-9, (E)-N-(3-((6-(1H-pyrrolo[2,3-b]pyridin-5-yl)pyrimidin-4-yl)amino)phenyl)-3-(4-(dimethylamino)but-2-enamido)cyclohexane-1-carboxamide]",–,6.60
